Laboratory results as given in patent US11046745B2, “Peptide mimotopes of the CD3 T-cell co-receptor epsilon chain and uses thereof” (BioNTech SE, priority 2015, dated 2021).
Positions of bridges follow the written chain, without caps; N, C: chain ends. Residues, ends and D or L forms follow the SMILES beside them. No end group written: not given here. *: point of attachment. Biotin = O=C1N[C@H]2[C@H](CS[C@H]2CCCCC(=O)*)N1

Tests used:
[1] = tested on: TR66 antibody (CD3ε specific antibody, clone TR66); assay: Binding analysis using biolayer interferometry (BLI), Octet Red, biotinylated peptides on streptavidin sensors; settings: for Yes/no binding, BLI: 500 nM TR66 antibody, one concentration
Experimental: FIG. 5. Comparative binding analysis of matured TR66 mimotopes aCD3-04-002 and aCD3-04-013 using biolayer interferometry (BLI) on an Octet Red system (fortéBIO). Biotinylated peptides were immobilized onto streptavidin (SA) sensors. After blocking with 1× blocking buffer and biocytin association and dissociaten rates of TR66 binding were recorded over a period of 2400 sec respectively. The antibody was used in a range of 1.5625 to 100 nM (1.5625, 3.125, 6.25, 12.5, 25, 50, 100 nM) for each analyzed peptide.
Binding analysis was performed using streptavidin (SA) sensors on an Octet Red system (fortéBIO). 5 μg/ml of biotinylated peptides were used for loading (200 μl per sensor). […] Remained biotin binding sites on coated streptavidin sensors were blocked using 100 μg/ml biocytin (Sigma-Aldrich) for 5 minutes. For binding mode analysis of different peptides 500 nM TR66 antibody was used in the association step. For detailed analysis the antibody was used in a range of 1.5625 to 100 nM (1.5625, 3.125, 6.25, 12.5, 25, 50, 100 nM) for each analyzed peptide. The following program was used: • Baseline: 1000 rpm for 180 sec. • Load: 1000 rpm for 900 sec. • Baseline: 1000 rpm for 180 sec. • Blocking: 1000 rpm for 300 sec. • Association: 1000 rpm for 1200-2400 sec. • Dissociation: 1000 rpm for 1200-2400 sec.
The peptides displaying the highest binding affinities from the peptide microarray experiments were synthesized by standard Fmoc-based solid-phase-synthesis protocols and purified (HPLC purity: >80%). The binding characteristics of each peptide were determined. In the first instance all peptides were analysed via biolayer interferometry (BLI) to get a first impression whether the respective variant has a significant binding property at all (yes/no binding, Table 2). At his point, only one TR66 concentration (500 nM) was tested. Except variants aCD3-04-010 and aCD3-04-012 all peptides show a measurable binding activity.

[2] = molecular target: TR66 antibody (CD3ε specific antibody, clone TR66); assay: Binding analysis using peptide ELISA, biotinylated peptides on streptavidin plates, TR66; settings: TR66; mean of at least two individual measurements; two-site saturation binding model; read-out: Apparent KD, ELISA
Experimental: FIG. 3. Binding analysis of phage derived variants using a peptide based ELISA. Biotinylated peptides were immobilized on streptavidin plates (Nunc) in a concentration of 0.75 μg/ml. After blocking 30 μg/ml TR66 or an unrelated antibody (control ab) were added and incubated for 1 h at 37° C. Binding was detected with an alkaline phosphatase conjugated goat anti-human IgG antibody (Sigma) and the chromogenic substrate PNPP (para-nitrophenyl phosphate). All reactions were performed as duplicates. SD values are presented as error bars.
For the detection of TR66 or OKT3 (Bio-X-Cell), the CD3 mimicking peptides were immobilized on streptavidin plates (Nunc) in a concentration of 0.75 μg/ml in PBS buffer for 1 hour at 37° C. Subsequently, the plate was washed three times with washing buffer (0.01% Tween-20 in PBS buffer) before it was blocked with 3% BSA in PBS overnight at 4° C. To detect TR66 or OKT3, the blocked plate was washed again three times with washing buffer followed by the addition of TR66 or OKT3 and incubation for 30 min at 37° C. After another washing step, it was incubated with an alkaline phosphatase conjugated Goat anti-human or anti-mouse IgG, Fe antibody (Jackson Immuno Research) for additional 30 min at 37° C. Finally, the plate was washed again before being incubated with 1.5 mg/ml of the substrate PNPP (para-nitrophenyl phosphate) in appropriate substrate buffer (1 M Diethanolamine, 0.05 mM MgCl2, 0.01% sodium azide, pH 9.8) for 30 min at RT in the dark. 3 M KOH was used to stop the enzymatic reaction. Absorbance was measured with a microplate reader (Infinite M200, Tecan). For dual wavelength analysis, 405 nm was chosen as measurement wavelength and 492 nm as reference wavelength. Absorbance values were calculated by subtraction of the measured values for the reference wavelength and for the measurement wavelength. Calculation of apparent KD values was done by fitting the data with Sigma Plot 10 using a two-site saturation binding model.

| Compound | Yes/no binding, BLI [1] | Binding of TR66 in detailed BLI analysis (FIG. 5) ([1]; TR66 1.5625 to 100 nM, dissociation constant could not be fitted) | Kd [2] |
| --- | --- | --- | --- |
| C[C@H](N)C(=O)N[C@H]1CSSC[C@@H](C(=O)NCC(=O)NCC(=O)NCC(=O)N[C@@H](CO)C(=O)N[C@@H](CCCCNC(=O)CCCC[C@@H]2SC[C@@H]3NC(=O)N[C@@H]32)C(=O)O)NC(=O)[C@H](CCC(N)=O)NC(=O)[C@@H]2CCCN2C(=O)[C@H](CC(=O)O)NC(=O)[C@H](CC(=O)O)NC(=O)[C@@H]2CCCN2C(=O)[C@H](CCCNC(=N)N)NC(=O)[C@H]([C@@H](C)O)NC1=O [aCD3-04-002, ACTRPDDPQC-GGGS-K(Bio)] (H-ACTRPDDPQCGGGSK(Biotin)-OH; disulfide 2-10) | Yes | concentration-dependent binding | 0.078 µM |
| C[C@H](N)C(=O)N[C@H]1CSSC[C@@H](C(=O)NCC(=O)NCC(=O)NCC(=O)N[C@@H](CO)C(=O)N[C@@H](CCCCNC(=O)CCCC[C@@H]2SC[C@@H]3NC(=O)N[C@@H]32)C(=O)O)NC(=O)[C@H](C)NC(=O)[C@@H]2CCCN2C(=O)[C@H](CC(=O)O)NC(=O)CNC(=O)[C@@H]2CCCN2C(=O)[C@H](CCCNC(=N)N)NC(=O)[C@H]([C@@H](C)O)NC1=O [aCD3-04-008, ACTRPGDPAC-GGGS-K(Bio)] (H-ACTRPGDPACGGGSK(Biotin)-OH; disulfide 2-10) | Yes | – | 0.164 µM |
| C[C@H](N)C(=O)N[C@H]1CSSC[C@@H](C(=O)NCC(=O)NCC(=O)NCC(=O)N[C@@H](CO)C(=O)N[C@@H](CCCCNC(=O)CCCC[C@@H]2SC[C@@H]3NC(=O)N[C@@H]32)C(=O)O)NC(=O)[C@H](Cc2ccc(O)cc2)NC(=O)[C@@H]2CCCN2C(=O)[C@H](CC(=O)O)NC(=O)CNC(=O)[C@@H]2CCCN2C(=O)[C@H](CCCNC(=N)N)NC(=O)[C@H]([C@@H](C)O)NC1=O [aCD3-04-009, ACTRPGDPYC-GGGS-K(Bio)] (H-ACTRPGDPYCGGGSK(Biotin)-OH; disulfide 2-10) | Yes | – | 0.167 µM |
| ACTR(NMI)GDPQC-GGGS-K(Bio) (ACTRLGDPQCGGGSK; not fully specified; N-methylisoleucine; GGGS linker; biotinylated lysine; MOD_RES (5)..(5) N-methylisoleucine; MOD_RES (15)..(15) K(Bio)) [aCD3-04-010] | No | – | – |

The remaining lines, values ahead:

| Yes/no binding, BLI [1] | Binding of TR66 in detailed BLI analysis (FIG. 5) ([1]; TR66 1.5625 to 100 nM, dissociation constant could not be fitted) | Kd [2] | Compound |
| --- | --- | --- | --- |
| Yes | – | 0.226 µM | C[C@@H](O)[C@@H]1NC(=O)[C@@H](NC(=O)[C@@H](N)Cc2c[nH]c3ccccc23)CSSC[C@@H](C(=O)NCC(=O)NCC(=O)NCC(=O)N[C@@H](CO)C(=O)N[C@@H](CCCCNC(=O)CCCC[C@@H]2SC[C@@H]3NC(=O)N[C@@H]32)C(=O)O)NC(=O)[C@H](CCC(N)=O)NC(=O)[C@@H]2CCCN2C(=O)[C@H](CC(=O)O)NC(=O)CNC(=O)[C@@H]2CCCN2C(=O)[C@H](CCCNC(=N)N)NC1=O [aCD3-04-006, WCTRPGDPQC-GGGS-K(Bio)] (H-WCTRPGDPQCGGGSK(Biotin)-OH; disulfide 2-10) |
| Yes | – | 0.299 µM | C[C@H](N)C(=O)N[C@H]1CSSC[C@@H](C(=O)NCC(=O)NCC(=O)NCC(=O)N[C@@H](CO)C(=O)N[C@@H](CCCCNC(=O)CCCC[C@@H]2SC[C@@H]3NC(=O)N[C@@H]32)C(=O)O)NC(=O)[C@H](CCC(N)=O)NC(=O)[C@@H]2CCCN2C(=O)[C@H](CC(=O)O)NC(=O)[C@H](CCC(=O)O)NC(=O)[C@@H]2CCCN2C(=O)[C@H](CCCNC(=N)N)NC(=O)[C@H]([C@@H](C)O)NC1=O [aCD3-04-007, ACTRPEDPQC-GGGS-K(Bio)] (H-ACTRPEDPQCGGGSK(Biotin)-OH; disulfide 2-10) |
| No | – | – | ACTRPWDPQC-GGGS-K(Bio) (ACTRPWDPQCGGGSK(Biotin); disulfide 2-10 (inferred)) [aCD3-04-012] |
